Reference: patent US20220313780A1, “METHODS AND COMPOSITIONS FOR TREATING INFLAMMATORY CONDITIONS” (THE SCRIPPS RESEARCH INSTITUTE, priority 2019, published 2022)

Test system: IL-1β
Experiment: IL-1β release (Quantikine ELISA) from THP1 cells treated with LPS and ATP
Assay type: cell-based, human
Settings: APC 4 μg/mL, TR47 50 μM, P3R 50 μM or TR47/P3R 8 nM & 500 nM for 1 hour before LPS and ATP
Experimental: THP1 cells were plated at a final concentration of 1×10^6/mL in 96 well plates and incubated with PMA (0.5 μM) for 3 hours 37° C. in supplemented RPMI. Media was subsequently changed every 24 hours for 3 days. Selected wells were treated with APC (4 μg/mL), TR47 (50 μM), P3R (50 μM), or TR47/P3R (8 nM & 500 nM, respectively) for 1 hour, washed with DPBS, and incubated with LPS (1 μg/mL) for 3 hours at 37° C. in serum-free RPMI. Cells were washed with DPBS and incubated with ATP (5 mM) in the presence or absence of 10 μM YVAD (caspase 1 inhibitor) for 45 minutes, and the resulting cell supernatant was used in the IL-1(3 Quantikine ELISA following manufacturer's (R&D) directions measuring absorbance, and the concentration of IL-1(3 was calculated following measurement of the standard curve. Data points represent mean±SEM of at least 3 independent experiments. *P<0.05 (vs. LPS+ATP).
[…]. THP1 cells were plated at a final concentration of 1×10^6/mL in 96 well plates and incubated with PMA (0.5 μM) for 3 hours 37° C. in supplemented RPMI. […] Cell supernatants were carefully collected and frozen until assayed using the IL-1β Quantikine ELISA following the manufacturer's (R&D Systems) directions, measuring absorbance. The concentration of IL-1β was calculated following measurement of the standard curve according to the manufacturer's directions.

Sequence | generation and release of IL-1β
GAPPNSFEEFPFSALEGWTGATIT [P3R, PAR3-derived 24-mer peptide] | significantly suppressed
NPNDKYEPFWEDEEKNESGL [TR47, PAR1-derived 20 amino acid peptide] | significantly suppressed
